According to PubChem BioAssay (NCI):
“And” between values parts separate entries of the source, which are not always exact repeats. Equal values may be shown once.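 Step 1: Grow cells in 96-well plates. Step 2: Expose to compound for 48 hours at 5 concentrations. Step 3: Interpolate endpoints linearly; if unreached, use highest concentration. GI50 marks 50% less growth. TGI: concentration producing complete growth inhibition.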

What was measured:
Experiment in all cases: inhibition of tumour cell growth, NCI panel, 48 h
NCI-H226 lung = test system: NCI-H226 lung
OVCAR-3 ovarian = test system: OVCAR-3 ovarian
SNB-19 CNS = test system: SNB-19 CNS
OVCAR-5 ovarian = test system: OVCAR-5 ovarian
M14 melanoma = test system: M14 melanoma
HCT-116 colon = test system: HCT-116 colon
UO-31 renal = test system: UO-31 renal
SR leukemia = test system: SR leukemia
OVCAR-8 ovarian = test system: OVCAR-8 ovarian
MALME-3M melanoma = test system: MALME-3M melanoma

Row | Compound | GI50 (NCI-H226 lung) | TGI (NCI-H226 lung) | GI50 (OVCAR-3 ovarian) | TGI (OVCAR-3 ovarian) | GI50 (SNB-19 CNS) | TGI (SNB-19 CNS) | GI50 (OVCAR-5 ovarian) | TGI (OVCAR-5 ovarian) | GI50 (M14 melanoma) | TGI (M14 melanoma) | GI50 (HCT-116 colon) | TGI (HCT-116 colon) | GI50 (UO-31 renal) | TGI (UO-31 renal) | GI50 (SR leukemia) | TGI (SR leukemia) | GI50 (OVCAR-8 ovarian) | TGI (OVCAR-8 ovarian) | GI50 (MALME-3M melanoma) | TGI (MALME-3M melanoma)
1 | O=C(Nc1ccc(-n2cc(-c3ccncc3)c(-c3ccc(Cl)c(O)c3)n2)cc1)c1cc(C(F)(F)F)cc(C(F)(F)F)c1 | 3.63 µM | 18.8 µM | 3.44 µM | 12.2 µM | 8.79 µM | > 100 µM | 21.4 µM | > 100 µM | 6.34 µM | 89.2 µM | 4.72 µM | 17.5 µM | 2.8 µM | 13.5 µM | 9.51 µM | > 100 µM | 6.54 µM | 34.8 µM | – | –
2 | O=C1c2cccc3c(N4CCOCC4)ccc(c23)C(=O)N1CCN1CCN(CCCCCN2CCN(CCN3C(=O)c4cccc5c(N6CCOCC6)ccc(c45)C3=O)CC2)CC1 | 87.3 µM | > 100 µM | 84.5 µM | > 100 µM | > 100 µM | > 100 µM | > 100 µM | > 100 µM | > 100 µM | > 100 µM | 33.8 µM | > 100 µM | – | – | – | – | 91 µM | > 100 µM | > 100 µM | > 100 µM
3 | CC(C)c1ccc(Cc2ccc(C(C)C)c(NC(=O)C(=O)Cc3cnc4ccccc4n3)c2C(C)C)c(C(C)C)c1NC(=O)C(=O)Cc1cnc2ccccc2n1 | – | – | – | > 100 µM | – | > 100 µM | – | > 100 µM | – | > 100 µM | – | > 100 µM | – | > 100 µM | – | – | – | > 100 µM | – | > 100 µM
4 | COc1ccc(-c2cnc(-c3ccncc3-c3cccc(OC)c3)o2)cc1 | 0.153 µM | 15.6 µM | – | – | 0.0451 µM | 19.5 µM | 0.0809 µM | 23.5 µM | 0.0304 µM | 14.2 µM | 0.0375 µM | 11.8 µM | 0.0896 µM | 14.2 µM | < 0.0152 µM | 13.5 µM | 0.0484 µM | 15.3 µM | – | –
5 | Cc1nc2sccn2c1C(=O)NNC(N)=S | – | > 100 µM | – | > 100 µM | – | > 100 µM | – | > 100 µM | – | – | – | > 100 µM | – | – | – | > 100 µM | – | > 100 µM | – | > 100 µM
6 | O=C1C=CC2(O)OCC3C=C4O[C@@H]5OC6(CCCCC6)O[C@@H]5C4[C@@H]2[C@@H]13 (some centres not stated) | – | > 100 µM | – | 52.2 µM | – | > 100 µM | – | > 100 µM | – | 43.8 µM | – | 32.1 µM | – | 37.3 µM | – | – | – | 77.2 µM | – | 62.1 µM
7 | COS(=O)c1cc(Cl)cc(Cl)c1OC(=O)CSSCC(=O)Oc1c(Cl)cc(Cl)cc1S(=O)OC (configuration not stated) | – | – | – | 86.4 µM | – | 49.2 µM | – | 41.2 µM | – | 46.3 µM | – | – | – | 60 µM | – | – | – | 61.9 µM | – | 42.4 µM
8 | C=C1C(=O)O[C@@H]2C[C@@]3(C)[C@H](O)CCC(=C)[C@@H]3C[C@H]12 | – | 25.7 µM | – | 21.4 µM | – | 46.9 µM | – | 20.5 µM | – | – | – | 18.5 µM | – | 23.2 µM | – | 14 µM | – | 23.3 µM | – | 12.6 µM
9 | COc1ccc([C@@]23Oc4cc(OC)cc(OC)c4[C@]2(O)[C@H](O)[C@H](C(=O)N(C)C)[C@H]3c2ccccc2)cc1 | – | – | 0.0164 µM | – | 0.0113 µM | 1.37 µM and 0.159 µM | 0.0116 µM | 0.0626 µM and 0.0694 µM and 0.0417 µM | – | 0.014 µM | – | – | 0.0214 µM | – | 0.016 µM | – | 0.0208 µM | 0.244 µM and 0.236 µM and 0.488 µM | 0.0142 µM | –
